Laboratory results as given in US20230085307A1, “PYRIDAZINONE COMPOUND AND HERBICIDE” (NISSAN CHEMICAL CORPORATION, priority 2019, published 2023).

Tests used:
velvetleaf [1] = assay: Test Example 5: herbicidal effect by foliage application, plastic box (Table 20, symbol M); type: in vivo, velvetleaf (Abutilon theophrasti)
Method in brief: (§1)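 Sow seeds spot-wise in sterilized diluvial soil; cover with ~1.5 cm soil. Grow 14 days in greenhouse, 25° C. to 30° C. Spray foliage with emulsion diluted to predetermined amount. Rate effect after 3 weeks.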

southern crabgrass [2] = assay: Test Example 5: herbicidal effect by foliage application, plastic box (Table 20, symbol F); type: in vivo, southern crabgrass (Digitaria ciliaris)
Method in brief: as §1

redroot pigweed [3] = assay: Test Example 5: herbicidal effect by foliage application, plastic box (Table 20, symbol N); type: in vivo, redroot pigweed (Amaranthus retroflexus); conditions: 320 g/ha, foliage application after 14-day growth, evaluated three weeks after application
Method in brief: as §1

blackgrass [4] = assay: Test Example 5: herbicidal effect by foliage application, plastic box (Table 20, symbol J); type: in vivo, blackgrass (Alopecurus myosuroides)
Method in brief: as §1

Chinese sprangletop = assay: Test Example 3: herbicidal effect by foliage application, Wagner pot (Table 18, symbol D); type: in vivo, chinese sprangletop (Leptochloa chinensis); conditions: 320 g/ha
Method in brief: (§2)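 Plants were sown in alluvial soil held under 0.1–0.5 cm standing water and grown 14 days in a greenhouse at 25–30 °C. An emulsifiable formulation, water-diluted to the set dose, was then sprayed onto the foliage, and effects were scored three weeks later using previously defined criteria.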

persian speedwell [5] = assay: Test Example 5: herbicidal effect by foliage application, plastic box (Table 20, symbol R); type: in vivo, Persian speedwell (Veronica persica)
Method in brief: as §1

wild oat [6] = assay: Test Example 5: herbicidal effect by foliage application, plastic box (Table 20, symbol I); type: in vivo, wild oat (Avena fatua)
Method in brief: as §1

barnyard grass [7] = assay: Test Example 5: herbicidal effect by foliage application, plastic box (Table 20, symbol H); type: in vivo, barnyard grass (Echinochloa crus-galli)
Method in brief: as §1

green foxtail [8] = assay: Test Example 5: herbicidal effect by foliage application, plastic box (Table 20, symbol G); type: in vivo, green foxtail (Setaria viridis)
Method in brief: as §1

windgrass [9] = assay: Test Example 5: herbicidal effect by foliage application, plastic box (Table 20, symbol L); type: in vivo, windgrass (Apera spica-venti)
Method in brief: as §1

rice flat sedge = assay: Test Example 3: herbicidal effect by foliage application, Wagner pot (Table 18, symbol E); type: in vivo, rice flat sedge (Cyperus iria); conditions: 320 g/ha
Method in brief: as §2

Italian ryegrass [10] = assay: Test Example 5: herbicidal effect by foliage application, plastic box (Table 20, symbol K); type: in vivo, Italian ryegrass (Lolium multiflorum)
Method in brief: as §1

lambsquarters [11] = assay: Test Example 5: herbicidal effect by foliage application, plastic box (Table 20, symbol O); type: in vivo, lambsquarters (Chenopodium album)
Method in brief: as §1

barnyard grass [12] = assay: Test Example 3: herbicidal effect by foliage application, Wagner pot (Table 18, symbol H); type: in vivo, barnyard grass (Echinochloa crus-galli); conditions: 320 g/ha
Method in brief: as §2

false cleavers = assay: Test Example 5: herbicidal effect by foliage application, plastic box (Table 20, symbol Q); type: in vivo, false cleavers (Galium spurium)
Method in brief: as §1

chickweed [13] = assay: Test Example 5: herbicidal effect by foliage application, plastic box (Table 20, symbol P); type: in vivo, common chickweed (Stellaria media); conditions: 320 g/ha, foliage application after 14-day growth, evaluated three weeks after application
Method in brief: as §1

barnyard grass [14] = assay: Test Example 4: herbicidal effect by soil treatment (Table 19, symbol H); type: in vivo, barnyard grass (Echinochloa crus-galli); conditions: amount of applied herbicide 194 g/ha
Method in brief: (§3)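 Applied as a water-diluted emulsion, the compound was sprayed onto soil covering newly sown seeds. Evaluation came three weeks after application, in a greenhouse held at 25° C. to 30° C.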

redroot pigweed [15] = assay: Test Example 4: herbicidal effect by soil treatment (Table 19, symbol N); type: in vivo, redroot pigweed (Amaranthus retroflexus); conditions: amount of applied herbicide 194 g/ha
Method in brief: as §3

windgrass [16] = assay: Test Example 4: herbicidal effect by soil treatment (Table 19, symbol L); type: in vivo, windgrass (Apera spica-venti); conditions: amount of applied herbicide 194 g/ha
Method in brief: as §3

chickweed [17] = assay: Test Example 4: herbicidal effect by soil treatment (Table 19, symbol P); type: in vivo, common chickweed (Stellaria media); conditions: amount of applied herbicide 194 g/ha
Method in brief: as §3

southern crabgrass [18] = assay: Test Example 4: herbicidal effect by soil treatment (Table 19, symbol F); type: in vivo, southern crabgrass (Digitaria ciliaris); conditions: amount of applied herbicide 194 g/ha
Method in brief: as §3

velvetleaf [19] = assay: Test Example 4: herbicidal effect by soil treatment (Table 19, symbol M); type: in vivo, velvetleaf (Abutilon theophrasti); conditions: amount of applied herbicide 194 g/ha
Method in brief: as §3

green foxtail [20] = assay: Test Example 4: herbicidal effect by soil treatment (Table 19, symbol G); type: in vivo, green foxtail (Setaria viridis); conditions: amount of applied herbicide 194 g/ha
Method in brief: as §3

Italian ryegrass [21] = assay: Test Example 4: herbicidal effect by soil treatment (Table 19, symbol K); type: in vivo, Italian ryegrass (Lolium multiflorum); conditions: amount of applied herbicide 194 g/ha
Method in brief: as §3

wild oat [22] = assay: Test Example 4: herbicidal effect by soil treatment (Table 19, symbol I); type: in vivo, wild oat (Avena fatua); conditions: amount of applied herbicide 194 g/ha
Method in brief: as §3

blackgrass [23] = assay: Test Example 4: herbicidal effect by soil treatment (Table 19, symbol J); type: in vivo, blackgrass (Alopecurus myosuroides); conditions: amount of applied herbicide 194 g/ha
Method in brief: as §3

lambsquarters [24] = assay: Test Example 4: herbicidal effect by soil treatment (Table 19, symbol O); type: in vivo, lambsquarters (Chenopodium album); conditions: amount of applied herbicide 194 g/ha
Method in brief: as §3

persian speedwell [25] = assay: Test Example 4: herbicidal effect by soil treatment (Table 19, symbol R); type: in vivo, Persian speedwell (Veronica persica); conditions: amount of applied herbicide 194 g/ha
Method in brief: as §3

[26] = 320 g/ha, foliage application after 14-day growth, evaluated three weeks after application
[27] = foliage application, 194 g/ha, three weeks after application

In the case of `COc1ccccc1-c1sc2c(OC)cccc2c1-c1c(O)c(C)nn(C)c1=O` [4-039], the “herbicidal effect on M: velvetleaf (evaluation grade 0-5)” value (velvetleaf [1]; [26]) was 4 (Herbicidal rate of 70% or more and less than 90%), the “herbicidal effect on F: southern crabgrass (evaluation grade 0-5)” value (southern crabgrass [2]; [26]) was 3 (Herbicidal rate of 40% or more and less than 70%) and the “herbicidal effect on N: redroot pigweed (evaluation grade 0-5)” value (redroot pigweed [3]) was 3 (Herbicidal rate of 40% or more and less than 70%). The “herbicidal effect on J: blackgrass (evaluation grade 0-5)” value (blackgrass [4]; [26]) was 2 (Herbicidal rate of 20% or more and less than 40%), the “herbicidal effect on Chinese sprangletop (D)” value (Chinese sprangletop) was 3 (Herbicidal rate of 40% or more and less than 70%) and the “herbicidal effect on R: persian speedwell (evaluation grade 0-5)” value (persian speedwell [5]; [26]) was 3 (Herbicidal rate of 40% or more and less than 70%). The “herbicidal effect on I: wild oat (evaluation grade 0-5)” value (wild oat [6]; [26]) was 3 (Herbicidal rate of 40% or more and less than 70%), the “herbicidal effect on H: barnyard grass (evaluation grade 0-5)” value (barnyard grass [7]; [26]) was 3 (Herbicidal rate of 40% or more and less than 70%) and the “herbicidal effect on G: green foxtail (evaluation grade 0-5)” value (green foxtail [8]; [26]) was 4 (Herbicidal rate of 70% or more and less than 90%). For the same compound, the “herbicidal effect on L: windgrass (evaluation grade 0-5)” value (windgrass [9]; [26]) was 3 (Herbicidal rate of 40% or more and less than 70%), the “herbicidal effect on rice flat sedge (E)” value (rice flat sedge) was 3 (Herbicidal rate of 40% or more and less than 70%) and the “herbicidal effect on K: Italian ryegrass (evaluation grade 0-5)” value (Italian ryegrass [10]; [26]) was 0 (Herbicidal rate of 5% or less (almost no effect)). The “herbicidal effect on O: lambsquarters (evaluation grade 0-5)” value (lambsquarters [11]; [26]) was 2 (Herbicidal rate of 20% or more and less than 40%), the “herbicidal effect on barnyard grass (H)” value (barnyard grass [12]) was 4 (Herbicidal rate of 70% or more and less than 90%) and the “herbicidal effect on Q: false cleavers (evaluation grade 0-5)” value (false cleavers; [26]) was 3 (Herbicidal rate of 40% or more and less than 70%). For the same compound, the “herbicidal effect on P: chickweed (evaluation grade 0-5)” value (chickweed [13]) was 2 (Herbicidal rate of 20% or more and less than 40%).
For `Cc1ccc2oc(-c3ccc(F)cc3)c(-c3c(O)c(C)nn(C)c3=O)c2c1` [9-004], the “herbicidal effect on velvetleaf (M)” value (velvetleaf [1]; [27]) was 3 (Herbicidal rate of 40% or more and less than 70%), the “herbicidal effect on southern crabgrass (F)” value (southern crabgrass [2]; [27]) was 2 (Herbicidal rate of 20% or more and less than 40%) and the “herbicidal effect on blackgrass (J)” value (blackgrass [4]; [27]) was 3 (Herbicidal rate of 40% or more and less than 70%). The “H: barnyard grass, herbicidal effect grade” value (barnyard grass [14]) was 3 (Herbicidal rate of 40% or more and less than 70%), the “N: redroot pigweed, herbicidal effect grade” value (redroot pigweed [15]) was 3 (Herbicidal rate of 40% or more and less than 70%) and the “herbicidal effect on persian speedwell (R)” value (persian speedwell [5]; [27]) was 5 (Herbicidal rate of 90% or more (almost completely withered)). For the same compound, the “herbicidal effect on wild oat (I)” value (wild oat [6]; [27]) was 0 (Herbicidal rate of 5% or less (almost no effect)), the “herbicidal effect on barnyard grass (H)” value (barnyard grass [7]; [27]) was 3 (Herbicidal rate of 40% or more and less than 70%) and the “L: windgrass, herbicidal effect grade” value (windgrass [16]) was 0 (Herbicidal rate of 5% or less (almost no effect)). The “P: chickweed, herbicidal effect grade” value (chickweed [17]) was 3 (Herbicidal rate of 40% or more and less than 70%), the “herbicidal effect on green foxtail (G)” value (green foxtail [8]; [27]) was 3 (Herbicidal rate of 40% or more and less than 70%) and the “herbicidal effect on windgrass (L)” value (windgrass [9]; [27]) was 0 (Herbicidal rate of 5% or less (almost no effect)). The “herbicidal effect on Italian ryegrass (K)” value (Italian ryegrass [10]; [27]) was 5 (Herbicidal rate of 90% or more (almost completely withered)), the “F: southern crabgrass, herbicidal effect grade” value (southern crabgrass [18]) was 2 (Herbicidal rate of 20% or more and less than 40%) and the “M: velvetleaf, herbicidal effect grade” value (velvetleaf [19]) was 0 (Herbicidal rate of 5% or less (almost no effect)). The “G: green foxtail, herbicidal effect grade” value (green foxtail [20]) was 2 (Herbicidal rate of 20% or more and less than 40%), the “herbicidal effect on lambsquarters (O)” value (lambsquarters [11]; [27]) was 3 (Herbicidal rate of 40% or more and less than 70%) and the “K: Italian ryegrass, herbicidal effect grade” value (Italian ryegrass [21]) was 4 (Herbicidal rate of 70% or more and less than 90%). The “I: wild oat, herbicidal effect grade” value (wild oat [22]) was 0 (Herbicidal rate of 5% or less (almost no effect)), the “herbicidal effect on false cleavers (Q)” value (false cleavers; [27]) was 4 (Herbicidal rate of 70% or more and less than 90%) and the “J: blackgrass, herbicidal effect grade” value (blackgrass [23]) was 0 (Herbicidal rate of 5% or less (almost no effect)). The “O: lambsquarters, herbicidal effect grade” value (lambsquarters [24]) was 5 (Herbicidal rate of 90% or more (almost completely withered)) and the “R: persian speedwell, herbicidal effect grade” value (persian speedwell [25]) was 1 (Herbicidal rate of 5% or more and less than 20%).
